The values below come from patent US20230002357A1, “7-PYRIMIDINE-2-YL-OXY-INDAZOLE DERIVATIVES AND THEIR USE AS HERBICIDES” (SYNGENTA CROP PROTECTION AG, priority 2019, published 2023).

What all share (type): in vivo
Common to all, as to conditions: 250 g/ha, evaluated after 13 days

The test system of assay [1] is ABUTH. Nature of the assay: Pre-emergence Test, glasshouse, ABUTH. The method, boiled down: (§1)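 Pots were sprayed 1 day after sowing (pre-emergence) or after 8 days' growth (post-emergence) at 250 g/ha, formulated in acetone/water 50:50 with 0.5% Tween 20. Glasshouse conditions were 24/16 °C, 14 h light, 65% humidity. Damage was scored after 13 days on a 1–5 scale (5 = 81–100%).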

The subject of assay [2] is Echinochloa crus-galli (ECHCG). Briefly: Post-emergence Test, glasshouse, ECHCG. The method, boiled down: as §1
Assay [3] has as its system Echinochloa crus-galli (ECHCG). Nature of the assay: Pre-emergence Test, glasshouse, ECHCG. The method, boiled down:
as §1

Assay [4] concerns IPOHE. Briefly: Post-emergence Test, glasshouse, IPOHE. The method, boiled down:
as §1

Assay [5] has as its system IPOHE. Briefly: Pre-emergence Test, glasshouse, IPOHE. The method, boiled down: as §1
Assay [6] relates to Setaria faberi (SETFA). Nature of the assay: Pre-emergence Test, glasshouse, SETFA. The method, boiled down:
as §1

In assay [7] the test system is Amaranthus retoflexus (AMARE). Nature of the assay: Pre-emergence Test, glasshouse, AMARE. The essentials:
as §1

The test system of assay [8] is ABUTH. Nature of the assay: Post-emergence Test, glasshouse, ABUTH. The method, boiled down:
as §1

The test system of assay [9] is Setaria faberi (SETFA). Briefly: Post-emergence Test, glasshouse, SETFA. The essentials:
as §1

For assay [10], the system named is Amaranthus retoflexus (AMARE). Briefly: Post-emergence Test, glasshouse, AMARE. The essentials: as §1

Consider `FC(F)OCCn1nc(Cl)c2cccc(Oc3ncc(Cl)cn3)c21` [Compound 1.051], for which the “percentage damage caused to the plant, five-point scale, ABUTH” value (“percentage damage caused … ABUTH” for short) in the assay with ABUTH [1] is 3 (3=41-60%); with ABUTH [8], 4 (4=61-80%). The “percentage damage caused to the plant, five-point scale, ECHCG” value (“percentage damage caused … ECHCG” for short) in assay [2] and in assay [3] was 4 (4=61-80%) in each case. Also, the “percentage damage caused to the plant, five-point scale, IPOHE” value (“percentage damage caused … IPOHE” for short) in the assay with IPOHE [4] was 3 (3=41-60%); in the assay on IPOHE [5], 2 (2=21-40%). Further, the “percentage damage caused to the plant, five-point scale, SETFA” value (“percentage damage caused … SETFA” for short) is recorded as 5 (5=81-100%) in the assay with Setaria faberi (SETFA) [6] and 4 (4=61-80%) with Setaria faberi (SETFA) [9]. The “percentage damage caused to the plant, five-point scale, AMARE” value (“percentage damage caused … AMARE” for short) in assay [7] and in [10] was 5 (5=81-100%) each time.
`Fc1cnc(Oc2cccc3c(C(F)(F)F)nn(CCCC(F)(F)F)c23)nc1` [Compound 1.071]: the “percentage damage caused … ABUTH” value in the assay with ABUTH [1] is 3 (3=41-60%); with ABUTH [8] it was 5 (5=81-100%). The “percentage damage caused … ECHCG” value is recorded as 4 (4=61-80%) in [2] and 5 (5=81-100%) in assay [3]. The figures for the “percentage damage caused … IPOHE” value in the assay on IPOHE [4] and in the assay with IPOHE [5] were 4 (4=61-80%) and 2 (2=21-40%), respectively. Further, the entries for the “percentage damage caused … SETFA” value in the assay on Setaria faberi (SETFA) [6] and in the assay on Setaria faberi (SETFA) [9] were 5 (5=81-100%) and 4 (4=61-80%), respectively. For the same molecule, the “percentage damage caused … AMARE” value in assay [7] and in [10] was 5 (5=81-100%) in each case.
As for `FC(F)(F)CCCn1nc(Cl)c2cccc(Oc3ncc(Cl)cn3)c21` [Compound 1.005, 3-chloro-7-(5-chloropyrimidin-2-yl)oxy-1-(4,4,4-trifluorobutyl)indazole], the figures for the “percentage damage caused … ABUTH” value in the assay on ABUTH [1] and with ABUTH [8] were 3 (3=41-60%) and 5 (5=81-100%), respectively. Moreover, the “percentage damage caused … ECHCG” value in assay [2] and in [3] was 5 (5=81-100%) each time. The “percentage damage caused … IPOHE” value is on record as 3 (3=41-60%) in the assay with IPOHE [4] and 1 (1=0-20%) in the assay with IPOHE [5]. The “percentage damage caused … SETFA” value in the assay with Setaria faberi (SETFA) [6] and in the assay with Setaria faberi (SETFA) [9] was 5 (5=81-100%) each time. Moreover, the “percentage damage caused … AMARE” value in [7] and in assay [10] was 5 (5=81-100%) throughout.
